The results in this text go back to PubChem BioAssay AID179 (DTP/NCI, 2004).

The test concerns CEM cells HIV-1 protection, formazan growth assay. Description: NCI AIDS Antiviral Assay. Conditions: for IC50: measured here: growth of uninfected CEM cells. A digest of the protocol:
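Soluble formazan readout of cell growth; CEM cells ± HIV-1; 5 drug concs. ≥50% protection → retest; ≥50% again = moderately active; reproducible 100% = confirmed active.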

The source made the active and inactive calls.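 The calls were made as follows: active = compounds giving half or more protection of infected cells from virus-caused growth loss, again on retest; inactive = the rest.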

On to `CCCNC(=O)c1ccccc1C(=O)C(Cl)c1ccccc1` (stereo not drawn), for which the EC50 was over 214 µM and the IC50 is over 214 µM.

As for `CCOC(=O)C(C)c1nc2ccc(C(F)(F)F)cc2[nH]c1=O` (stereo not drawn), the EC50 is over 200 µM and the IC50 is 110 µM.

Take `C=CCOC1OC(CO[Si](C)(C)C(C)(C)C)C(OCc2ccccc2)C(OCc2ccccc2)C1OCc1ccccc1` (stereo not drawn): the outcome was inactive.

On to `Cc1cc(O)c(/C=N/C(=S)Nc2cc(Cl)ccc2Cl)c(=O)o1`, for which the EC50 was over 50.1 µM and the half-inhibitory concentration (IC50) was over 50.1 µM.

Turning to `CCOC(=O)C1SC(=Nc2ccccc2)N=C1C` (stereo not drawn), the outcome was inactive.

For the compound `CCOC(=O)c1cc2sc(NC(=O)c3cccs3)nc2o1`, the outcome was inactive.

Take `c1cc(SSc2ccncc2)ccn1`: the EC50 was over 200 µM and the IC50 was 25.1 µM.

As to `CS(=O)(=O)CSCSSCS(C)(=O)=O`, the EC50 was over 427 µM and the IC50 turned out to be 20 µM.

On to `COc1cc2c(cc1O)C1C(O2)c2ccc(OCc3ccccc3)cc2OC1(C)C` (stereo not drawn), for which the EC50 was over 200 µM and the half-maximal inhibitory concentration (IC50) came out at 15.1 µM.

Regarding `CCOC(=O)c1cc2c3c(c1)C(=O)CCN3CCC2=O`, the result was inactive.

Take `CCOC(=O)c1nc2ccccc2nc1Nc1ccc(OC)c(OC)c1`: the EC50 is over 200 µM and the IC50 is over 200 µM.

In the case of `CCC/C(=N/OC(=O)N(C)C)c1ccccc1`, the EC50 was over 200 µM and the IC50 amounted to 135 µM.

In the case of `CCCCCCCCCc1c(O)c(O)c(CCCCCCCCC)c(CCCCCCCCC)c1CCCCCCCCC`, the EC50 was over 100 µM and the IC50 amounted to 16.6 µM.

As to `COC(=O)C(=O)C(C(=O)C(=O)Nc1ccc(F)cc1)c1nc2ccc([N+](=O)[O-])cc2[nH]c1=O` (stereo not drawn), the EC50 was over 550 µM and the IC50 was determined as 245 µM.

As to `N/C(=N\C(=S)N1CCCCC1)N1CCCCC1`, the outcome was inactive.

Regarding `O=C1NC(N/N=C\c2ccccc2)=N/C1=C/c1ccc(Cl)cc1`, the outcome was inactive.

`Cc1cc(N=Nc2c(N)c(C)cc(N=Nc3ccc(C(N)=O)cc3)c2N)ccc1N=Nc1cc(C(=O)O)c(O)c(S(=O)(=O)O)c1`: the EC50 was 8.91 µM and the concentration for half-maximal inhibition (IC50) is over 200 µM.

For the compound `Oc1ccc(-c2c3ccccc3c(-c3ccc(O)cc3)c3ccccc23)cc1`, the EC50 is over 2.75 µM and the half-inhibitory concentration (IC50) is over 2.75 µM.

Consider `Cc1ccc2c(c1)-c1nc(N)c(C#N)c(-c3ccccc3)c1CCS2(=O)=O`, for which the EC50 was over 200 µM and the concentration for half-maximal inhibition (IC50) is over 200 µM.

Regarding `c1ccc(C2CN=C(c3ccccn3)C(c3ccccn3)=N2)cc1` (stereo not drawn), the EC50 is over 60.3 µM and the IC50 is over 60.3 µM.

`CC(C)CN(CC(=O)Nc1cccc(Cl)c1)CC(C)C`: the EC50 was over 200 µM and the IC50 was found to be 141 µM.

Turning to `CCOC(OC1=C(C#N)CCC1)C(C)[Se]c1ccccc1` (stereo not drawn), the EC50 is over 49 µM and the IC50 turned out to be 26.3 µM.

`Nc1nc(Cl)cc(NCC2(CO)CC(CCCc3ccccc3)C2)n1` (stereo not drawn): the EC50 is over 20 µM and the IC50 is 0.0603 µM.

Consider `CC(=O)NNC(=S)N/C=C(\C#N)C(=O)c1ccc2ccccc2c1`, for which the EC50 was over 200 µM and the IC50 was over 200 µM.

On to `S=c1nc(-c2ccnc(-c3nc(=S)[nH][nH]3)c2)[nH][nH]1`, for which the EC50 is over 25.7 µM and the IC50 is over 25.7 µM.

For `CCN(CC)C(=O)c1ccc(O)c(OC)c1`, the EC50 was over 200 µM and the IC50 was over 200 µM.

For `N#Cc1c(C#N)c(-c2ccco2)n(/N=C/c2ccco2)c1N`, the EC50 was over 200 µM and the concentration for half-maximal inhibition (IC50) is over 200 µM.

On to `CCOC(=O)C(NC(=O)CC)(Nc1ccccc1OC)C(F)(F)F` (stereo not drawn), for which the EC50 is over 200 µM and the IC50 was over 200 µM.

For the compound `O=C1N=C2SC=C(NC(=S)Nc3ccccc3)N2NC12c1ccccc1-c1ccccc12`, the EC50 is over 200 µM and the IC50 was 74.1 µM.

With `CC(=O)C1CC2=C(CCC1=O)CCC1(CC2)OCCO1` (stereo not drawn), the outcome was inactive.

With `CC(=O)CCC1(c2ccccc2)OC(=O)C(C#N)=C1c1ccccc1` (stereo not drawn), the result was inactive.

Turning to `CCCCCCCC(=O)OCC1OC(n2cc(F)c(=O)[nH]c2=O)C(NC(=O)OCc2ccccc2)C(O)C1O` (stereo not drawn), the EC50 was over 64.6 µM and the IC50 was found to be 56.2 µM.

Regarding `O=C1C=C(NC(=O)C2CCCCC2)c2ncccc2C1=O`, the outcome was inactive.

As for `CCCCCCCCCCNc1nc(F)nc(Nc2cc3ccc(OC)cc3oc2=O)n1`, the EC50 was over 39.8 µM and the IC50 worked out at 7.08 µM.

As for `Cc1cc(=O)oc2c(C)c3oc(CBr)c(Br)c3cc12`, the EC50 is over 200 µM and the IC50 was found to be 2.24 µM.

Turning to `CCC(=O)C[P+](c1ccccc1)(c1ccccc1)c1ccccc1`, the EC50 is over 200 µM and the half-inhibitory concentration (IC50) was found to be 69.2 µM.

Take `O=c1c2ccccc2ncn1COCc1ccccc1`: the EC50 is over 200 µM and the 50% inhibitory concentration (IC50) was over 200 µM.

For `Cc1cc(N=Nc2c(O)c3ccccc3[nH]c2=O)ccc1N=Nc1ccc(C(=O)N(C)C)cc1`, the EC50 is over 200 µM and the IC50 is 151 µM.

Take `CN(C)C(=S)/N=c1\ssc(=S)n1-c1ccccc1`: the outcome was inactive.

On to `N#CCCN(CCC#N)c1ccc(/C=C2\N=C(COc3ccc(Cl)cc3Cl)OC2=O)cc1`, for which the EC50 is over 537 µM and the half-maximal inhibitory concentration (IC50) came out at 490 µM.

For `CC(C)(Cc1ccccc1)Cc1cc(O)ccc1O`, the half-maximal effective concentration (EC50) was 1.29 µM and the IC50 was found to be 7.24 µM.

With `CCOP(=O)(OCC)/C(C#N)=C/c1cccs1`, the EC50 was 77.6 µM and the half-maximal inhibitory concentration (IC50) was determined as 724 µM.

As to `O=P(N1CC1)(N1CC1)N1CCN(P(=O)(N2CC2)N2CC2)CC1`, the EC50 is over 200 µM and the concentration for half-maximal inhibition (IC50) was determined as 2.24 µM.

With `C/C(=N/N=C(\[O-])c1ccncc1)C(F)(F)F.C/C(=N\N=C(/[O-])c1ccncc1)C(F)(F)F.[Ni+2]`, the EC50 is over 200 µM and the IC50 is 89.1 µM.

Regarding `Cc1cc(S(=O)(=O)Nc2cc(N)[nH]n2)c(SCc2nc(N)nc(N(C)C)n2)cc1Cl`, the EC50 is over 200 µM and the 50% inhibitory concentration (IC50) is over 200 µM.

Take `CC(=O)OC1CCC2(COS(=O)(=O)c3ccc(C)cc3)C(=CCC3C2CCC2(C)C(C(C)CCCC(C)C)CCC32)C1` (stereo not drawn): the EC50 is over 200 µM and the IC50 was over 200 µM.

`c1ccc(SC23C4C5C6C4C2C6C53)nc1` (stereo not drawn): the EC50 was over 151 µM and the half-maximal inhibitory concentration (IC50) amounted to 77.6 µM.

Consider `COC(=O)C1=C(O)C(C(=O)OC)[C@@]2(O)[C@@H](C(=O)OC)[C@H](C)C[C@@H]1[C@@H]2C(=O)OC` (stereo partly drawn), for which the EC50 was over 200 µM and the IC50 amounted to 39.8 µM.

As for `CC(C)n1c(=O)c2nn3c(=O)n(C(C)C)c(=O)c3nn2c1=O`, the EC50 is over 200 µM and the IC50 was over 200 µM.

Turning to `C/C=C/CCC1CCCCN(C(=O)OC(C)(C)C)C1OCC` (stereo not drawn), the EC50 was over 60.3 µM and the concentration for half-maximal inhibition (IC50) was over 60.3 µM.

Regarding `COC(=O)C(=O)C(C(=O)C(=O)Nc1cc([N+](=O)[O-])ccc1C#N)c1nc2ccccc2[nH]c1=O` (stereo not drawn), the result was inactive.

For `CC(C)C1=CC23CCC4C(C)(C(=O)O)CCCC4(C)C2CC1C1C(=O)N(c2ccc(C(=O)O)cc2)C(=O)C13` (stereo not drawn), the EC50 is over 45.7 µM and the 50% inhibitory concentration (IC50) was over 45.7 µM.

For `CCOC(=O)c1ccc(-c2cc(C)no2)[nH]1`, the EC50 is over 200 µM and the half-maximal inhibitory concentration (IC50) worked out at 36.3 µM.

Take `O=c1[nH]c(=O)n(C2CC(O)C(CO)O2)c2nc3ccc4ccccc4c3nc12` (stereo not drawn): the EC50 is over 100 µM and the concentration for half-maximal inhibition (IC50) came out at 13.2 µM.

Regarding `C=C1CN(S(=O)(=O)c2ccc(C)cc2)CCCN(C(C)C)CCCN(S(=O)(=O)c2ccc(C)cc2)C1`, the EC50 was over 200 µM and the IC50 worked out at 6.31 µM.

Consider `CCOC(=O)CC(NC(=O)c1ccc(N=NN(C)C)cc1)C(=O)OCC` (stereo not drawn), for which the EC50 is over 186 µM and the 50% inhibitory concentration (IC50) is over 186 µM.

Take `O=C(C=Nc1ccccc1C(=O)[O-])c1ccco1.O=C(C=Nc1ccccc1C(=O)[O-])c1ccco1.[Ni+2]`: the EC50 was over 1.91 µM and the IC50 was over 1.91 µM.

As to `CCCN(CCC)/N=C/c1c2c(O)c3c(O)c(C)c4c(c3c1O)C(=O)C(C)(O/C=C/C(OC)C(C)C(OC(C)=O)C(C)C(O)C(C)C(O)C(C)/C=C/C=C(C)C(=O)N2)O4` (stereo not drawn), the EC50 was over 200 µM and the IC50 came to 3.47 µM.

Take `CCOc1ncnc2c1ncn2C1OC(CO)CC1F` (stereo not drawn): the EC50 was over 178 µM and the half-inhibitory concentration (IC50) is over 178 µM.

For `O=C1c2ccccc2C2(c3ccc(Cl)cc3)N[C@H]3CCCC[C@@H]3N12` (stereo partly drawn), the EC50 is over 200 µM and the half-maximal inhibitory concentration (IC50) was 141 µM.

Take `Cc1ccc(O)c(N=O)c1.[Cu+2]`: the EC50 was over 200 µM and the concentration for half-maximal inhibition (IC50) is 2.63 µM.

As for `N#C/C(C(=O)NCc1ccccc1)=C(/N)N1CCCC1`, the EC50 was over 200 µM and the IC50 is over 200 µM.

Take `COc1ccc(C2c3cc4c(cc3OC3(OC)COC(=O)C23)OCO4)c(OC)c1` (stereo not drawn): the EC50 is over 100 µM and the half-maximal inhibitory concentration (IC50) was determined as 4.68 µM.

`C[C@@H]1C[C@H](O)[C@]2(O)O[C@@H]3C[C@@]4(C=O)[C@@H](CC=C5[C@@H]4CC[C@]4(C)[C@@H](C6=CC(=O)OC6)CC[C@]54O)C[C@H]3O[C@@H]2O1`: the EC50 is over 0.1 µM and the concentration for half-maximal inhibition (IC50) was found to be 0.0138 µM.

As to `C/C(=N/NC(=S)NCCc1ccccn1)c1cnccn1`, the EC50 is over 200 µM and the IC50 is 8.71 µM.

With `O=C(O)c1c(O)ccc(N=Nc2ccc(CCc3ccc(N=Nc4ccc(O)c(C(=O)O)c4O)cc3S(=O)(=O)O)c(S(=O)(=O)O)c2)c1O`, the EC50 was over 162 µM and the 50% inhibitory concentration (IC50) is 97.7 µM.

Consider `O=C(Nc1nc2c(=O)[nH]cnc2s1)c1ccccc1`, for which the EC50 was over 200 µM and the concentration for half-maximal inhibition (IC50) is over 200 µM.

Consider `FC(F)(F)c1ccc2c(-c3cc[nH]c3)ccnc2c1`, for which the EC50 is over 200 µM and the IC50 is 15.5 µM.

Take `CC1(C)Nc2cc3c(cc2-n2cccc21)oc1ccccc13`: the EC50 was over 200 µM and the IC50 worked out at 9.12 µM.

Compound `[O]=[Sb][c]1ccc(Br)cc1` had an EC50 of over 200 µM and an IC50 of 4.57 µM.

In the case of `CC1(C)COC(c2cc3c(cc2Br)OCO3)=N1`, the EC50 was over 209 µM and the half-inhibitory concentration (IC50) is over 209 µM.

Consider `N[C@@H]1c2c(csc2Br)C(=O)[C@@H]1O`, for which the EC50 was over 200 µM and the half-inhibitory concentration (IC50) was determined as 11 µM.
